Measurements as given in patent publication US8969327B2, “Substituted androst-4-ene diones” (priority 2010, dated 2015).

Target: T1, Purified P450arom (aromatase) reconstituted with P450-reductase (CPR) (Homo sapiens, UniProt P11511)
T1 sequence (P11511 1-503): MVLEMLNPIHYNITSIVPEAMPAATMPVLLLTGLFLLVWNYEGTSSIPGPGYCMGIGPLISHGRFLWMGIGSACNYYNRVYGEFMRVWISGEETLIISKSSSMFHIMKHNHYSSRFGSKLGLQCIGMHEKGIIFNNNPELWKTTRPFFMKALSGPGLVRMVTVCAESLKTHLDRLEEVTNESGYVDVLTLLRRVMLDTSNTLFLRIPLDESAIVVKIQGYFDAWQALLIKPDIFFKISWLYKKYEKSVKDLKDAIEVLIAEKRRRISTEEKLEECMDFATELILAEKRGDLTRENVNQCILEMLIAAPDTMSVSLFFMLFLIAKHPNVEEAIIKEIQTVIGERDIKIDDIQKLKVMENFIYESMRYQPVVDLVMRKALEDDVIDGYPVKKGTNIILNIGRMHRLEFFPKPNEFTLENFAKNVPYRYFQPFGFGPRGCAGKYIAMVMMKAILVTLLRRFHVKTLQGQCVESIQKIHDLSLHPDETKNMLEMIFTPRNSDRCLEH
Assay: Measurement of aromatase activity by 3H-water method
Format: biochemical
Settings: substrate 0.24 μM [1β-3H, 4-14C] androstenedione, 37° C., 20 minutes

[1] = compound concentration 0.1 (μmol)
[2] = compound concentration 1 (μmol)
[3] = compound concentration 10 (μmol)

Structure (SMILES) | % Inhibition [1] | % Inhibition [2] | % Inhibition [3]
CC/C=C/CO[C@@H]1C[C@@H]2[C@H](CC[C@]3(C)C(=O)CC[C@@H]23)[C@@]2(C)C=CC(=O)C=C12 [HDDG-061, (6R,8R,9S,10R,13S,14S)-10,13-dimethyl-6-((E)-pent-2-en-1-yloxy)-7,8,9,10,11,12,13,14,15,16-decahydro-3H-cyclopenta[α]phenanthrene-3,17(6H)-dione] | 96% | 93% | 
CC#CCO[C@@H]1C[C@@H]2[C@H](CC[C@]3(C)C(=O)CC[C@@H]23)[C@@]2(C)C=CC(=O)C=C12 [HDDG-029] | 34% | 63% | 95%
C[C@]12C=CC(=O)C=C1C=C[C@@H]1[C@@H]2CC[C@]2(C)C(=O)CC[C@@H]12 [HDDG-003] |  | 67% | 80%
CC(C)(C)O[C@@H]1C[C@@H]2[C@H](CC[C@]3(C)C(=O)CC[C@@H]23)[C@@]2(C)C=CC(=O)C=C12 [HDDG-015] |  |  | 54%
C[C@]12CCC(=O)C(=[N+]=[N-])C1=CC[C@@H]1[C@@H]2CC[C@]2(C)C(=O)CC[C@@H]12 [HDDG-023] | 24% | 30% | 33%
CO[C@@H]1C[C@@H]2[C@H](CC[C@]3(C)C(=O)CC[C@@H]23)[C@@]2(C)CCC(=O)C=C12 [HDDG-021] | 0% | 70% | 63%
C[C@]12CCC(O)=C(OCc3ccccc3)C1=CC[C@@H]1[C@@H]2CC[C@]2(C)C(=O)CC[C@@H]12 [HDDG-050, (8R,9S,10R,13S,14S)-4-(benzyloxy)-3-hydroxy-10,13-dimethyl-7,8,9,10,11,12,13,14,15,16-decahydro-1H-cyclopenta[α]phenanthren-17(2H)-one] | 75% | 96% | 100%
CC(C)(C)O[C@@H]1C[C@@H]2[C@H](CC[C@]3(C)C(=O)CC[C@@H]23)[C@@]2(C)CCC(=O)C=C12 [HDDG-024] | 16% | 78% | 76%
CCC#CCO[C@@H]1C[C@@H]2[C@H](CC[C@]3(C)C(=O)CC[C@@H]23)[C@@]2(C)C=CC(=O)C=C12 [HDDG-046, (6R,8S,9S,10R,13S,14S)-10,13-dimethyl-6-(pent-2-yn-1-yloxy)-7,8,9,10,11,12,13,14,15,16-decahydro-3H-cyclopenta[α]phenanthrene-3,17(6H)-dione] | 89% | 96% | 99%
C#CCO[C@@H]1C[C@@H]2[C@H](CC[C@]3(C)C(=O)CC[C@@H]23)[C@@]2(C)C=CC(=O)C=C12 [HDDG-026] | 10% | 35% | 80%
C[C@]12CCC(=O)CC1=CC[C@@H]1[C@@H]2CC[C@]2(C)C(=O)CC[C@@H]12 [HDDG-018] |  |  | 41%
C[C@]12C=CC(=O)C=C1[C@H](OCC#CCO)C[C@@H]1[C@@H]2CC[C@]2(C)C(=O)CC[C@@H]12 [HDDG-065] | 96% | 84% | 
CCC(=O)O[C@@H]1C[C@@H]2[C@H](CC[C@]3(C)C(=O)CC[C@@H]23)[C@@]2(C)C=CC(=O)C=C12 [HDDG-030] | 3% | 0% | 29%
C[C@]12CCC(=O)C=C1[C@H](OCc1ccccc1)C[C@@H]1[C@@H]2CC[C@]2(C)C(=O)CC[C@@H]12 [HDDG-041] | 34% | 95% | 87%
C[C@]12C=CC(=O)C=C1[C@H](OC(=O)Cc1ccccc1)C[C@@H]1[C@@H]2CC[C@]2(C)C(=O)CC[C@@H]12 [HDDG-031] | 0% | 51% | 47%
C[C@]12CCC(=O)C=C1C(Br)C[C@@H]1[C@@H]2CC[C@]2(C)C(=O)CC[C@@H]12 (stereo partly drawn) [HDDG-017] |  |  | 64%
C[C@]12C=CC(=O)C(=[N+]=[N-])C1=CC[C@@H]1[C@@H]2CC[C@]2(C)C(=O)CC[C@@H]12 [HDDG-004] |  | 25% | 40%
CCCCO[C@@H]1C[C@@H]2[C@H](CC[C@]3(C)C(=O)CC[C@@H]23)[C@@]2(C)C=CC(=O)C=C12 [HDDG-044, (6R,8S,9S,10R,13S,14S)-6-butoxy-10,13-dimethyl-7,8,9,10,11,12,13,14,15,16-decahydro-3H-cyclopenta[α]phenanthrene-3,17(6H)-dione] | 73% | 96% | 86%
CC(=O)OC1=C(O)C=C[C@@]2(C)C1=CC[C@@H]1[C@@H]2CC[C@]2(C)C(=O)CC[C@@H]12 [HDDG-039] | 33% | 98% | 88%

Structure (SMILES) | % Inhibition [1] | % Inhibition [2] | % Inhibition [3]
CCOC1=C(O)CC[C@@]2(C)C1=CC[C@@H]1[C@@H]2CC[C@]2(C)C(=O)CC[C@@H]12 [HDDG-034] | 14% | 96% | 88%
C#CCOC1=C(O)C=C[C@@]2(C)C1=CC[C@@H]1[C@@H]2CC[C@]2(C)C(=O)CC[C@@H]12 [HDDG-032] | 32% | 98% | 93%
CCC#CCO[C@@H]1C[C@@H]2[C@H](CC[C@]3(C)C(=O)CC[C@@H]23)[C@@]2(C)CCC(=O)C=C12 [HDDG-042] | 40% | 95% | 99%
COc1ccc(COC2=C(O)CC[C@@]3(C)C2=CC[C@@H]2[C@@H]3CC[C@]3(C)C(=O)CC[C@@H]23)cc1 [HDDG-064] | 96% | 96% | 
C[C@]12C=CC(O)=C(OCC#Cc3ccccc3)C1=CC[C@@H]1[C@@H]2CC[C@]2(C)C(=O)CC[C@@H]12 [HDDG-038] | 22% | 97% | 91%
C[C@]12C=CC(O)=C(OC(=O)Cc3ccccc3)C1=CC[C@@H]1[C@@H]2CC[C@]2(C)C(=O)CC[C@@H]12 [HDDG-019] | 29% |  | 54%
CCO[C@@H]1C[C@@H]2[C@H](CC[C@]3(C)C(=O)CC[C@@H]23)[C@@]2(C)C=CC(=O)C=C12 [HDDG-025] |  | 19% | 39%
C[C@]12C=CC(=O)C=C1[C@@H](Br)C[C@@H]1[C@@H]2CC[C@]2(C)C(=O)CC[C@@H]12 [HDDG-040] | 54% | 94% | 98%
C[C@]12C=CC(=O)C=C1[C@H](OCC#Cc1ccccc1)C[C@@H]1[C@@H]2CC[C@]2(C)C(=O)CC[C@@H]12 [HDDG-027] | 27% | 66% | 94%
CC(=O)O[C@@H]1C[C@@H]2[C@H](CC[C@]3(C)C(=O)CC[C@@H]23)[C@@]2(C)C=CC(=O)C=C12 [HDDG-033] | 48% | 96% | 100%
CO[C@H]1C[C@@H]2[C@H](CC[C@]3(C)C(=O)CC[C@@H]23)[C@@]2(C)C=CC(=O)C=C12 [HDDG-014] |  |  | 42%
C[C@]12C=CC(=O)C=C1[C@H](O)C[C@@H]1[C@@H]2CC[C@]2(C)C(=O)CC[C@@H]12 [HDDG-010] |  |  | 55%
C[C@]12C=CC(=O)C=C1[C@H](OCC#Cc1cccc3ccccc13)C[C@@H]1[C@@H]2CC[C@]2(C)C(=O)CC[C@@H]12 [HDDG-054, (6R,8R,9S,10R,13S,14S)-10,13-dimethyl-6-((3-(naphthalen-1-yl)prop-2-yn-1-yl)oxy)-7,8,9,10,11,12,13,14,15,16-decahydro-3H-cyclopenta[α]phenanthrene-3,17(6H)-dione] | 94% | 92% | 
CCCCCO[C@@H]1C[C@@H]2[C@H](CC[C@]3(C)C(=O)CC[C@@H]23)[C@@]2(C)C=CC(=O)C=C12 [HDDG-063, (6R,8R,9S,10R,13S,14S)-10,13-dimethyl-6-(pentyloxy)-7,8,9,10,11,12,13,14,15,16-decahydro-3H-cyclopenta[α]phenanthrene-3,17(6H)-dione] | 96% | 97% | 
CCC(=O)OC1=C(O)C=CC2(C)C1=CCC1C2CCC2(C)C(=O)CCC12 (stereo not drawn) [HDDG-022] | 51% | 86% | 86%
CC/C=C\CO[C@@H]1C[C@@H]2[C@H](CC[C@]3(C)C(=O)CC[C@@H]23)[C@@]2(C)C=CC(=O)C=C12 [HDDG-062, (6R,8R,9S,10R,13S,14S)-10,13-dimethyl-6-((Z)-pent-2-en-1-yloxy)-7,8,9,10,11,12,13,14,15,16-decahydro-3H-cyclopenta[α]phenanthrene-3,17(6H)-dione] | 97% | 96% | 
N#Cc1ccc(C(c2ccc(C#N)cc2)n2cncn2)cc1 [Letrazole, reference compound] | 76% | 98% | 
CCCCO[C@@H]1C[C@@H]2[C@H](CC[C@]3(C)C(=O)CC[C@@H]23)[C@@]2(C)CCC(=O)C=C12 [HDDG-052] | 47% | 95% | 87%
CCCC#CCO[C@@H]1C[C@@H]2[C@H](CC[C@]3(C)C(=O)CC[C@@H]23)[C@@]2(C)C=CC(=O)C=C12 [HDDG-047] | 42% | 95% | 99%
